Data published in article PMC9020739, “Identification of a two-component regulatory system involved in antimicrobial peptide resistance in Streptococcus pneumoniae” (PLoS Pathogens, 2022).
In brackets after ≈: the same amount, converted by molar mass. Where a SMILES comes first, the peptide text is derived from it. Bridges are numbered along the chain shown (N, C = ends). [ ]: non-standard residue; d: D form. The star is where a group is joined. Ileψ(thiazoline)Cys = CC[C@H](C)[C@H](N)C1=N[C@H](C(=O)*)CS1; dOrn = NCCC[C@@H](N)C(=O)O

How the values were obtained:
Format in all cases: cell-based, Streptococcus pneumoniae
S. pneumoniae D39 WT = conditions: D39 strain
Summary of the method: (§1)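 MIC by 2-fold broth dilution of antimicrobial peptides in Todd-Hewitt medium, cells seeded at OD600 0.002; complementation strains grown with 0.5 μM ComS, then assayed with 2 μM ComS. Growth followed at 37 °C without agitation by OD600 every 15 min for 15 h.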

[1] = test system: S. pneumoniae D39 ΔbceAB/tcs01; conditions: D39 strain; 2-fold broth dilution, Todd-Hewitt medium, 37°C, 15 h; two to four biological replicates, each technical duplicates
Summary of the method: (§2)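 Classical twofold broth dilution MIC; THB, anaerobic preculture to A ~0.3, inoculum OD600 0.002, 37°C static, OD600 q15 min x 15 h; ComS 0.5 μM (preculture) / 2 μM (assay) for complementation.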

S. pneumoniae D39 ΔbceAB = conditions: D39 strain; 2-fold broth dilution, Todd-Hewitt medium, 37°C, 15 h; two to four biological replicates, each technical duplicates
Summary of the method: as §2

S. pneumoniae D39 Δtcs01 = conditions: D39 strain; 2-fold broth dilution, Todd-Hewitt medium, 37°C, 15 h; two to four biological replicates, each technical duplicates
Summary of the method: as §2

[2] = test system: S. pneumoniae R6 ΔbceAB/tcs01; conditions: R6 strain; 2-fold broth dilution, Todd-Hewitt medium, 37°C, 15 h; two to four biological replicates, each technical duplicates
Summary of the method: as §2

S. pneumoniae R6 ΔbceAB = conditions: R6 strain; 2-fold broth dilution, Todd-Hewitt medium, 37°C, 15 h; two to four biological replicates, each technical duplicates
Summary of the method: as §2

S. pneumoniae R6 Δtcs01 = conditions: R6 strain; 2-fold broth dilution, Todd-Hewitt medium, 37°C, 15 h; two to four biological replicates, each technical duplicates
Summary of the method: as §2

S. pneumoniae R800 WT = conditions: R800 strain; 2-fold broth dilution, Todd-Hewitt medium, 37°C, 15 h; at least biological triplicates, each technical duplicates
Summary of the method: as §1

[3] = test system: S. pneumoniae R800 bceAB-gfp; conditions: R800 strain; 2-fold broth dilution, Todd-Hewitt medium, 37°C, 15 h; at least biological triplicates, each technical duplicates
Summary of the method: as §1

[4] = test system: S. pneumoniae R800 ΔbceAB; conditions: R800 strain; 2-fold broth dilution, Todd-Hewitt medium, 37°C, 15 h; at least biological triplicates, each technical duplicates
Summary of the method: as §2

[5] = test system: S. pneumoniae R800 Δhk01-PcomX-hk01
Summary of the method: as §1

S. pneumoniae R800 Δhk01 = conditions: R800 strain; 2-fold broth dilution, Todd-Hewitt medium, 37°C, 15 h; at least biological triplicates, each technical duplicates
Summary of the method: as §2

[6] = test system: bceAB and tcs01 genes in S. pneumoniae D39 WT; experiment: Quantification of gene expression by qPCR; conditions: D39 wild-type, bacitracin 1 μg/ml for 5, 15 and 30 min, relative to untreated control
Protocol: (§3) S. pneumoniae D39 WT and Δtcs01 strains were routinely grown to OD600nm = 0.3 in THY. Then 1 μg/mL of bacitracin was added to the growth media for up to 30 min. Samples were taken at time points shown in the results section. Next, the cultures were mixed with RNA protect (Qiagen) at 1:1 ratio and incubated at room temperature for 5 min and centrifuged for 10 min at 3, 200 g at 4°C. The supernatant was decanted and the pellet was stored at -80°C. The bacteria were resuspended in 100 μL of sterile Tris-EDTA (TE), containing 15 mg/mL lysozyme (Sigma) then 20 μL of Proteinase K (20 mg/mL) (Roche) were added. The sample was vortexed 5 times for 10 sec at two-minutes intervals. Then 350 μL of lysis buffer from the Nucleospin RNA kit (Macherey-Nagel) were added to the sample with 3.5 μL of β-mercaptoethanol and 25 mg of glass beads (Sigma). The cells were lysed by continual vortexing for 5 min. The mRNA was extracted according to the manufacturer’s instructions. After elution, RNA samples were incubated with 5 μL of DNAse for 20 min at room temperature, then inactivated by heating for 70°C for 5 min. RNA concentration was measured using Nanovue (GE Healthcare). For cDNA synthesis 1 μg of RNA was generally used with the SuperScript III kit (Invitrogen) containing a reverse transcriptase, a set of primers, dNTPs, MgCl2 random hexamers and […] after the cDNA generation according to manufacturer’s instructions. Samples were then stored at -20°C. qPCR measurements were done with 2.5 μL of cDNA mixed with 1 μL (3 μM final) of forward and reverse primers, 5 μL iQ SYBR Green Supermix (BioRad) and 0.5 μL water using the CFX Connect Optical Module (BioRad) program as follows: 95°C for 3 min, then a repeat 40 times of 95°C for 10 sec, 55°C for 30 sec, and a fluorescence reading.

[7] = test system: bceAB genes in S. pneumoniae D39 Δtcs01; experiment: Quantification of gene expression by qPCR; conditions: D39 Δtcs01 knockout; bacitracin 1 μg/ml
Protocol: as §3

CC[C@H](C)[C@H](N)C1=N[C@H](C(=O)N[C@@H](CC(C)C)C(=O)N[C@H](CCC(=O)O)C(=O)N[C@H](C(=O)N[C@H]2CCCCNC(=O)[C@H](CC(N)=O)NC(=O)[C@@H](CC(=O)O)NC(=O)[C@H](Cc3cnc[nH]3)NC(=O)[C@@H](Cc3ccccc3)NC(=O)[C@H]([C@@H](C)CC)NC(=O)[C@@H](CCCN)NC2=O)[C@@H](C)CC)CS1 [bacitracin] ({Ileψ(thiazoline)Cys}-L[dE]IK[dOrn]I[dF]H[dD]N; lactam 4-C (inferred); N-terminus assumed)
Minimum Inhibitory Concentration, WT (S. pneumoniae D39 WT; 2-fold broth dilution, Todd-Hewitt medium, 37°C, 15 h, two to four biological replicates, each technical duplicates): 4 µg/mL
Fold sensitivity diplayed by the KO strains (S. pneumoniae D39 WT; KO strains versus WT MIC): 4
Minimum Inhibitory Concentration, ΔbceAB/tcs01 [1]: 1 µg/mL
Minimum Inhibitory Concentration, ΔbceAB (S. pneumoniae D39 ΔbceAB): 1 µg/mL
Minimum Inhibitory Concentration, Δtcs01 (S. pneumoniae D39 Δtcs01): 1 µg/mL
Minimum Inhibitory Concentration, ΔbceAB/tcs01 [2]: 1 µg/mL
Minimum Inhibitory Concentration, ΔbceAB (S. pneumoniae R6 ΔbceAB): 1 µg/mL
Minimum Inhibitory Concentration, Δtcs01 (S. pneumoniae R6 Δtcs01): 1 µg/mL
MIC, WT (S. pneumoniae R800 WT): 4 µg/mL (≈ 2.81 µM)
MIC, bceAB-gfp [3]: 4 µg/mL (≈ 2.81 µM)
MIC, ΔbceAB [4]: 1 µg/mL (≈ 0.703 µM)
Resistance as compared to the WT strain ([5]; R800-Δhk01-PcomX-rr01-hk01 versus R800 WT, from MICs): 64 fold
MIC, Δhk01-PcomX-hk01 ([5]; R800 complementation strain, 2 μM ComS inducer, 2-fold broth dilution, Todd-Hewitt medium, 37°C, 15 h, at least biological triplicates, each technical duplicates): 256 µg/mL (≈ 180 µM)
MIC, Δhk01 (S. pneumoniae R800 Δhk01): 1 µg/mL (≈ 0.703 µM)
Transcription of the tcs01 genes [6]: unaffected
Transcription of the bceAB genes ([6]; n = 6-8): strong upregulation
Transcription of the bceAB genes [7]: failed to upregulate
